For one assay, the system named is IgE+ mMCP-1+ mast cells. The assay is described as follows: Localization of gavaged HRF inhibitors in jejunum by confocal microscopy. The class given is in vivo, mouse. Conditions: mice with allergic diarrhea, 1 h after i.g. gavage of 0.1 mg, anti-GST staining. The method, then:
HRF multimers in the jejunum of non-sensitized/OVA challenged (Cont, n=6) or OVA-sensitized/OVA-challenged (OVA, n=5) mice were quantified by a newly developed ELISA (FIG. 3A, FIG. 3C). HRF was also measured by ELISA (FIG. 3B). HRF dimer and monomer were quantified by western blotting in control (Cont) and food allergic mice treated without (OVA) or with GST (GST) or GST-N19 (N19) (n=5 for each group) (FIG. 3D). Allergic diarrhea was induced by 6 challenges. On the day of 7th challenge, the mice were gavaged with 0.1 mg of GST or GST-N19 (FIG. 3E). One hour later, mice were sacrificed without OVA challenge. Jejunum tissues were stained for GST, IgE, and mMCP-1 before confocal microscopy (n=5 for GST and n=6 for GST-N19). Arrows indicate cells positive for GST or GST-N19 as well as IgE and mMCP-1. […] Bars=50 μm.
Jejunum biopsy was fixed in 4% paraformaldehyde at 4° C., washed in 10-20% sucrose in phosphate buffered saline, and embedded in O.C.T. compound (Sakura Finetek, Japan). Cyrosections were made in 6 μm and blocked with 2% skim milk. Immunostaining was performed with anti-HRF (rabbit polyclonal FL-172), anti-GST (rabbit polyclonal Z-5) (Santa Cruz Biotechnology), anti-IgE (clone RME-1 from Biolegend and clone R35-72 from BD Biosciences), anti-mMCP1 (Catalog #AF5146, R&D Systems), anti-CD45 (clone 30-F11), anti-CD63 (clone NVG-2) (Biolegend), and anti-Siglec F (clone E50-2440, BD Biosciences) as primary antibodies, and anti-Rabbit Alexa Fluor 647 (Catalog #A21245), anti-Rat Alexa Fluor 568 (Catalog #A11077), and anti-Sheep Alexa Fluor 555 (Catalog #A11015) (Thermo Fisher Scientific) as secondary antibodies. Coverslips were mounted with Prolong Gold with DAPI (Thermo Fisher Scientific) and fluorescence was observed under Leica TCS SP2 confocal microscopy (Leica) and Nuance Multi spectral Imaging System (PerkinElmer).
Applicant next tested whether HRF inhibitors target mucosal mast cells. To this end, mice with allergic diarrhea were i.g. gavaged with GST-N19 or GST, and their location was identified 1 h after their gavage.

The test system of assay [1] is BEAS-2B human bronchial epithelial cells. The assay is described as follows: HRF secretion, western blot, BEAS-2B. As to conditions: cultured cells scraped and treated with adenosine and ATP. It counts as cell-based. An excerpt:
As lung epithelial cells are exposed to the environment, HRF secretion was studied using BEAS-2B human bronchial epithelial cells. A small amount of HRF was secreted constitutively, but house dust mite allergens induced the secretion of high-molecular-weight HRF species (HMW-HRFs). Various cytokines including epithelial derived cytokines as well as Th2 cytokines and proinflammatory cytokines further enhanced HDM-induced secretion of HMW-HRFs.
Cultured cells were scraped and treated with adenosine and ATP, which should be abundantly present in inflammatory or injured tissues. These conditions induced secretion of HRF monomer, dimer and HMW-HRFs like stimulation with HDM plus cytokines.
Culture supernatants were analyzed by SDS-PAGE under nonreducing (−DTT) and reducing (+DTT) conditions, followed by western blotting for HRF probing. HDM-induced HRF secretion was enhanced not only by Th2 cytokines (IL-4, IL-5, and IL-13), but also by epithelial derived cytokines (IL-25, IL-33, and TSLP) and proinflammatory cytokines (IL-1beta, IL-6 and TNF). med, medium alone; US, unstimulated; HDM, house dust mite; CR, cockroach; RW, ragweed; Af, Aspergillus fumigatus. Arrowhead, HRF monomer.

Assay [2] relates to OVA-induced food allergy (allergic diarrhea). The assay is described as follows: IgE-mediated experimental food allergy, i.g. pretreatment with HRF inhibitor before each OVA challenge. The class given is in vivo, mouse. Conditions: i.g. pretreatment; serum ELISA. The method, then:
FIGS. 1A-1I show GST-N19 inhibits the development of diarrhea and intestinal mastocytosis in murine food allergy. Mice were i.p. sensitized with OVA ([…]) plus alum on days 0 and 14. From day 28, mice were i.g. challenged with OVA (50 mg) three times a week. Sensitized mice were either non-pretreated (−) or i.g. pretreated with 100 μg of GST or GST-N19 (N19). (FIG. 1A) Procedure scheme. (FIG. 1B) The development of diarrhea was monitored for 90 min after each OVA challenge. (n=5 for non-sensitized group, n=3 for inhibitor non-pretreated group, n=4 for GST group, n=6 for N19 group, data are representative of at least 3 independent experiments) Log-rank test: p=0.028 (GST vs. GST-N19), p=0.036 (control vs. GST-N19). […] (FIG. 1C-FIG. 1E) Total IgE, IgG1, HRF, and HRF-reactive IgE and IgG in sera were measured by ELISA. (FIG. 1F) Serum mMCP-1 was also measured by ELISA. (FIG. 1G) Sections of jejunum were stained with chloroacetate esterase to identify mast cells. Sections indicated by rectangles are enlarged in lower rows. Bar=100 μm in large pictures and 50 μm in insets. (FIG. 1H) Flow cytometry was performed to enumerate MMC9s (Lin^−c-Kit^+ST2^+IL-17RB^−Integrin β7^lo) in jejunum. (n=14 for non-sensitized group, n=15 for inhibitor non-pretreated group, n=9 for GST group, n=9 for GST-N19 group, pooled data of 3 independent experiments) (FIG. 1I) Cytokine mRNAs in jejunum were quantified by qRT-PCR. *, **: p<0.05, p<0.01 by ANOVA with Tukey's multiple comparison.
Mice were i.p. sensitized with OVA (50 μg/mouse) plus alum on days 0 and 14. From day 28, mice were i.g. challenged with OVA (25 or 50 mg) or PBS (control) three times a week. Before each challenge, mice were starved for 3 h, then i.g. pretreated with GST, GST-N19 (100 μg/mouse), synthetic N19 peptide, or HRF-2CA. The development of diarrhea was monitored for 90 min after OVA challenge. Diarrhea severity (30) was based on states of stool: solid (score 0), funicular (score 1), slurry (score 2), and watery (score 3).
For histologic analysis, jejunal tissue was fixed in 10% formalin. Mast cells in jejunal sections were detected by chloroacetate esterase staining. IgE, IgG, IgG1, IgG2a, mMCP-1, HRF, HRF-reactive IgE, and HRF-reactive IgG 24 h after the last OVA challenge were measured by ELISA (see Supplemental Information). Cytokine mRNAs in jejunum were quantified by qRT-PCR.
Twenty-four hours after the last OVA challenge, mice were sacrificed and small intestines (0.5-15 cm from stomach) were collected. The intestinal tissues were opened longitudinally and washed with HBSS. The washed tissues were incubated with 5 mM EDTA-HBSS for 30 min at 4° C., transferred to 30 ml HBSS in 50 ml tubes, and vigorously shaken to remove intestinal epithelial cells. The tissues were then washed with 10 ml of 10% FCS RPMI medium. Tissues were cut into tiny pieces and incubated with 2.4 mg/ml Collagenase D and 0.2 mg/ml DNase for 30 min at 37° C. Then cells were washed, resuspended in 44% Percoll solution, and slowly loaded on the top of 67% Percoll solution. The cells were centrifuged (1800 rpm, 20 min) and lymphocyte fractions were collected and used for detection of MMC9s (Lin^−c-Kit^+ST2^+IL-17RB^−Integrin β7^lo).
The cells were first incubated with 2.4G2 for 15 min at 4° C. and further incubated with Abs (PE-anti-07 integrin mAb (clone FIB504), PerCP/Cy5.5-anti-CD4 mAb (clone RM4-5), PerCP/Cy5.5-anti-CD8 mAb (clone 53-6.7), PerCP/Cy5.5-anti-CD11b mAb (clone M1/70), PerCP/Cy5.5-anti-CD11c mAb (clone N418), PerCP/Cy5.5-anti-B220 mAb (RA3-6B2), PerCP/Cy5.5-anti-Ly-6G/Ly-6C mAb (clone RB6-8C5), PerCP/Cy5.5-anti-CD335 mAb (clone 29A1.4), AlexaFluor647-anti-IL-17RB (clone 9B10), APC/Cy7-anti-CD117 (clone 2B8), Biotin-anti-ST2 (clone DIH9)) (Biolegend) for 30 min at 4° C. After washed, the cells were incubated with SA-BV421 (Biolegend) for 30 min at 4° C. MMC9 population was identified using FACS Canto. Data were analyzed using FlowJo software.
Background: In an ELISA, binding on a coated surface is turned into a signal by an enzyme label.

In assay [3] the test system is c-Kit+ mucosal mast cells of the small intestine. The assay is described as follows: Ex vivo mast cell activation test (MCAT). It counts as cell-based, mouse. Conditions: cells from allergic mice, HRF-2CA 300 μg/ml. The method, then:
FIGS. 2A-2C show mucosal mast cells can be activated ex vivo by antigen. Cells were released with EDTA from small intestines of non-sensitized/OVA challenged (Cont) or OVA-sensitized/OVA-challenged (OVA) mice, and mononuclear cells were selected. The cells were incubated for 15 min at 37° C. with OVA or anti-IgE antibody, and activation of Kit^+ mast cells was measured by flow cytometry (FIG. 2A, FIG. 2B). **, ***: p<0.01, p<0.001 by Student's t-test. (n=2; a representative of 2 independent experiments) (FIG. 2C) Mucosal cells derived from OVA-sensitized/OVA-challenged mice were stimulated with PBS (n=4), OVA (10 ng/ml, n=4) or HRF dimer (100 μg/ml, n=2) in the presence or absence of HRF-2CA (300 μg/ml).
FIGS. 11A-11C show HRF dimer, but not monomer can activate mast cells. (FIG. 11A) Purified dimeric and monomeric HRF expressed in E. coli. Recombinant HRF-[…] was purified first by Histrap HP and then Sephacryl S-200 HR16/60. Two peaks were observed by Sephacryl size fractionation. The first (Fr1) and second (Fr3) peaks contained dimer and monomer, respectively, as shown by SDS-PAGE. Fr1 and Fr3 were used for mast cell stimulation. (FIG. 11B) Cells were released with 10 mM EDTA from small intestines of OVA-sensitized/OVA-challenged mice, and mononuclear cells were selected. The cells were incubated for 15 min at 37° C. with mHRF monomer or dimer (100 μg/ml), or PBS, and Kit^+ mast cell activation (LAMP-1^+) was measured by flow cytometry (n=3). (FIG. 11C) Control experiments indicate an excellent specificity of the assay for HRF multimers. HRF-2CA (2CA) was used as a monomer control (n=2 for each concentration). Note that total concentrations of the 1:9 mixture of dimer:monomer gave almost the same luminescence values as did ten-fold less concentrations of dimer.
Twenty-four hours after the last OVA challenge, mice were sacrificed and small intestines (0.5-15 cm from stomach) were collected. The intestinal tissues were opened longitudinally and washed with PBS. Then, the tissues were incubated with 10 mM EDTA-PBS for 30 min at 37° C. After incubation, the tissues were transferred to 30 ml PBS in 50 ml tubes and vigorously shaken. After washed, the cells were resuspended in 40% Percoll solution and slowly loaded on the top of 75% Percoll solution. The cells were then centrifuged (2000 rpm, 20 min) and lymphocytes were collected. The cells were once centrifuged and resuspended in Tyrode's buffer. Abs (Biotin-anti-CD4 mAb (clone RM4-5), Biotin-anti-CD8 mAb (clone 53-6.7), Biotin-anti-B220 mAb (clone RA3-6B2), Biotin-anti-CD326 mAb (clone G8.8), PE-anti-CD117 (clone 2B8), AlexaFluor647-anti-LAMP-1 mAb (clone 1D4B)) (Biolegend) were added and cells were then stimulated with OVA, anti-IgE (clone RME-1, BioLegend) and recombinant dimeric murine HRF for 15 min at 37° C. After activation, cells were washed and incubated with FITC-streptavidin (Catalog #405202, Biolegend) for 30 min at 4° C. LAMP-1 expression was detected using FACS Calibur. Data were analyzed using FlowJo software.

The text below walks through data of US20220241369A1, “COMPOSITIONS AND METHODS OF MODULATING INFLAMMATION” (La Jolla Institute for Allergy and Immunology, priority 2018, published 2022).

For the compound “GST: GST protein used as control for GST-N19 [reference compound]”, in the assay on IgE+ mMCP-1+ mast cells, the “IgE+ mMCP-1+ mast cells co-localized with the substance” value is on record as 34%. On to `Nc1ncnc2c1ncn2[C@@H]1O[C@H](COP(=O)(O)OP(=O)(O)OP(=O)(O)O)[C@@H](O)[C@H]1O` [ATP], for which the “secretion of HRF monomer, dimer and HMW-HRFs” value in assay [1] is reported as “induced”.

For “synthetic N19 peptide: synthesized N19 peptide (N-terminal 19 amino acids of HRF); HRF inhibitor (MIIYRDLISHDEMFSDIYK)”, the “levels of total IgE, IgG1, IgG2a or HRF-reactive IgE and IgG” value in assay [2] is listed as “failed to affect”. In addition, the “HRF-induced activation of mucosal mast cells” value in assay [3] (HRF dimer 100 μg/ml) was “significantly suppressed”. For the same compound, the “OVA-induced activation of mucosal mast cells” value in assay [3] (OVA 10 ng/ml) is “significantly suppressed”. `Nc1ncnc2c1ncn2[C@@H]1O[C@H](CO)[C@@H](O)[C@H]1O` [adenosine]: the “secretion of HRF monomer, dimer and HMW-HRFs” value in assay [1] is recorded as “induced”.
